From patent US20030186281A1, “Modified tetracycline repressor protein compositions and methods of use” (priority 2001, published 2003)

Tested on: tet operator sequence
Assay: β-galactosidase activity of a tetracycline-regulated promoter in transformed E. coli with revTetR, in the presence and absence of anhydrotetracycline (atc)
Assay type: cell-based, Escherichia coli
Conditions: FIG. 2
Procedure: The relative activity of revTetR repressors was determined at 28° C. and 37° C. for each clone by measuring β-galactosidase activity of a tetracycline-regulated promoter in transformed Escherichia coli in the presence and absence of the tetracycline analog, anhydrotetracycline (atc). The relative β-galactosidase activity was measured in standard Miller units and is presented as the percent of maximal expression as measured in the absence of Tet repressor. […] With respect to each mutant, as well as the wild-type controls, FIG. 2 provides two horizontal bars; the upper horizontal bar represents the level of β-galactosidase activity in the absence of anhydrotetracycline (−atc) while the lower horizontal bar represents the level of β-galactosidase activity in the presence of anhydrotetracycline (+atc). […]
The ability of each revTetR clone to bind to its cognate tet operator sequence and regulate transcription in a prokaryotic organism, Escherichia coli, in the presence and absence of a tetracycline analog (anhydrotetracycline, atc) was determined (Table 3, FIG. 2). […]

In the case of `Cc1c2c(c(O)c3c(O)cccc13)C(=O)[C@]1(O)C(=O)C(C(N)=O)=C(O)[C@@H](N(C)C)[C@@H]1C2` [anhydrotetracycline, reference compound], the “repression of transcription in prokaryotic organisms by the tetracycline analog (with revTetR)” value is reported as “about 50 fold”.
